Measured values as given in patent US20020071842A1, “Soluble CD1 compositions and uses thereof” (priority 2000, published 2002).
Entries after “also recorded” stand apart in the source; their conditions may differ.

Tests used:
Assay in all cases: Plate-bound mCD1d fusion protein hybridoma stimulation assay (IL-2 ELISA)
Type in all cases: cell-based, mouse
24.7.C hybridoma = conditions: 24 7.C NKT hybridoma; plate-bound mCD1d-IgGFc2a fusion protein preincubated with lipid antigen
Summary of the method: (§1)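 IL-2 (pg/ml) by sandwich ELISA, regressed on a murine IL-2 standard curve, reports stimulation of hybridomas (1×10^5/well, 16-20 hr, 37° C) on immobilized mCD1d fusion protein pre-pulsed with lipid, 40:1 molar ratio by default, 24-48 hr at 37° C.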

24.9.E hybridoma = conditions: for IL-2 secretion: 24.9 E NKT hybridoma, plate-bound mCD1d-IgGFc2a fusion protein preincubated with lipid antigen
Summary of the method: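 Protein A plates loaded with 400-600 ng/well mCD1d fusion protein plus lipid antigen (default 40:1 molar ratio), 24-48 hr at 37 °C, washed; hybridomas added at 1×10^5 cells/well for 16-20 hr. Supernatant IL-2 quantified by sandwich ELISA against murine IL-2 standard curve.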

DN32D3 hybridoma = conditions: DN32D3 NKT hybridoma; plate-bound mCD1d-IgGFc2a fusion protein preincubated with lipid antigen
Summary of the method: as §1

KT/12 hybridoma = conditions: KT/12 NKT hybridoma; plate-bound mCD1d-IgGFc2a fusion protein preincubated with lipid antigen
Summary of the method: as §1

Vβ/9 hybridoma = conditions: Vβ/9 NKT hybridoma; plate-bound mCD1d-IgGFc2a fusion protein preincubated with lipid antigen
Summary of the method: as §1

XV19 hybridoma = conditions: XV19 diverse TCR hybridoma; plate-bound mCD1d-IgGFc2a fusion protein preincubated with lipid antigen
Summary of the method: as §1

In the case of CCCCCCCCCCCCCCCCCCCCCCCCCC(=O)N[C@@H](CO[C@H]1O[C@H](CO)[C@H](O)[C@H](O)[C@H]1O)[C@H](O)[C@H](O)CCCCCCCCCCCCCC [α-GalCer, α-galactosylceramide], the IL-2 secretion (24.7.C hybridoma) is reported as “+++ (“+++” indicates greater than 1000 pg/ml IL-2)”, the “IL-2 response to mCD1d fusion protein pre-treated with purified or synthetic lipid” value (from here on “IL-2 response”) (24.9.E hybridoma; 24.9.E hybridoma) is reported as “responded strongly; also recorded: secreted IL-2 efficiently” and the “enhancement of antigen recognition after pre-incubation at pH 4.0 compared to pH 7.5” value (24.9.E hybridoma; 24.9.E hybridoma, 3:1 molar ratio of antigen to protein, citrate/phosphate buffer) is reported as “approximately 4 fold”. The “pre-incubation pH giving maximal IL-2 release” value (24.9.E hybridoma; 24.9.E hybridoma, pH 7.5 to pH 3.0 tested) was 4.0, the “IL-2 when the 19G11 anti-mCD1d mAb was included” value (24.9.E hybridoma; 24.9.E hybridoma, representative experiment, 19G11 blocking antibody included) was 103 pg/mL and the “mean IL-2 produced” value (24.9.E hybridoma; 24.9.E hybridoma, representative experiment, mCD1d fusion protein pre-treated with antigen) was 2,089 pg/ml. The IL-2 secretion (24.9.E hybridoma) was “+++ (“+++” indicates greater than 1000 pg/ml IL-2)”, the IL-2 secretion (DN32D3 hybridoma) was “+++ (“+++” indicates greater than 1000 pg/ml IL-2)” and the IL-2 secretion (KT/12 hybridoma) was “+++ (“+++” indicates greater than 1000 pg/ml IL-2)”. For the same compound, the IL-2 secretion (Vβ/9 hybridoma) was “++ (“++” indicates 250-1000 pg/ml)” and the IL-2 secretion (XV19 hybridoma) was 0 (A “0” indicates a mean of less than 50 pg/ml IL-2 was secreted).

phosphatidylinositol [PI] was tested, and the IL-2 secretion (24.7.C hybridoma) was 0 (A “0” indicates a mean of less than 50 pg/ml IL-2 was secreted), the “IL-2 response” value (24.9.E hybridoma; 24.9.E hybridoma) was “only modestly increased IL-2 secretion; also recorded: significantly less IL-2” and the IL-2 secretion (24.9.E hybridoma) was “+ (“+” indicates 50-250 pg/ml)”. The IL-2 secretion (DN32D3 hybridoma) was 0 (A “0” indicates a mean of less than 50 pg/ml IL-2 was secreted), the IL-2 secretion (KT/12 hybridoma) was “+ (“+” indicates 50-250 pg/ml)” and the IL-2 secretion (Vβ/9 hybridoma) was 0 (A “0” indicates a mean of less than 50 pg/ml IL-2 was secreted). The IL-2 secretion (XV19 hybridoma) was 0 (A “0” indicates a mean of less than 50 pg/ml IL-2 was secreted).

In the case of unglycosylated ceramide, the IL-2 secretion (24.7.C hybridoma) is reported as 0 (A “0” indicates a mean of less than 50 pg/ml IL-2 was secreted), the “IL-2 response” value (24.9.E hybridoma; 24.9.E hybridoma) is reported as “neither the unglycosylated ceramide, nor the closely related β-linked form, β-GalCer, were recognized” and the IL-2 secretion (24.9.E hybridoma) is reported as 0 (A “0” indicates a mean of less than 50 pg/ml IL-2 was secreted). The IL-2 secretion (DN32D3 hybridoma) was 0 (A “0” indicates a mean of less than 50 pg/ml IL-2 was secreted), the IL-2 secretion (KT/12 hybridoma) was 0 (A “0” indicates a mean of less than 50 pg/ml IL-2 was secreted) and the IL-2 secretion (Vβ/9 hybridoma) was 0 (A “0” indicates a mean of less than 50 pg/ml IL-2 was secreted). The IL-2 secretion (XV19 hybridoma) was 0 (A “0” indicates a mean of less than 50 pg/ml IL-2 was secreted).

In the case of β-galactosylceramide [β-GalCer], the IL-2 secretion (24.7.C hybridoma) is reported as 0 (A “0” indicates a mean of less than 50 pg/ml IL-2 was secreted), the “IL-2 response” value (24.9.E hybridoma; 24.9.E hybridoma) is reported as “neither the unglycosylated ceramide, nor the closely related β-linked form, β-GalCer, were recognized” and the IL-2 secretion (24.9.E hybridoma) is reported as 0 (A “0” indicates a mean of less than 50 pg/ml IL-2 was secreted). The IL-2 secretion (DN32D3 hybridoma) was 0 (A “0” indicates a mean of less than 50 pg/ml IL-2 was secreted), the IL-2 secretion (KT/12 hybridoma) was 0 (A “0” indicates a mean of less than 50 pg/ml IL-2 was secreted) and the IL-2 secretion (Vβ/9 hybridoma) was 0 (A “0” indicates a mean of less than 50 pg/ml IL-2 was secreted). The IL-2 secretion (XV19 hybridoma) was 0 (A “0” indicates a mean of less than 50 pg/ml IL-2 was secreted).
